What all share (assay): ≥ marks a high value that may be exact or a test limit, other limits are often not marked, values filed in µg/mL are converted to µM
In test [1] the test system is Candida albicans.
Test [2] relates to Staphylococcus aureus.
The test system of test [3] is Bacillus subtilis.
The subject of test [4] is Escherichia coli.
The subject of test [5] is Escherichia coli ATCC 25922.
Test [6] has as its system Bacillus subtilis ATCC 6633.
Test [7] concerns Staphylococcus aureus ATCC 25923.
Test [8] concerns Candida albicans ATCC 10231.

Values after ≈ are worked out from the molar mass of the structure shown.

Data on six compounds can be found in DBAASP.

As usually defined, the MIC is the smallest concentration in the dilution series that meets the test's criterion for growth inhibition. In the case of `CC[C@H](C)[C@H](NC(=O)CNC(=O)[C@H](CO)NC(=O)[C@H](CC(C)C)NC(=O)[C@H](CC(C)C)NC(=O)CN)C(=O)N[C@@H](CC(C)C)C(=O)NCC(=O)N[C@@H](C)C(=O)NCC(=O)N[C@@H](CCCCN)C(=O)N[C@@H](Cc1cnc[nH]1)C(=O)N[C@H](C(=O)N[C@H](C(=O)N[C@@H](CS)C(=O)NCC(=O)N[C@@H](CC(C)C)C(=O)N[C@@H](CO)C(=O)NCC(=O)N1CCC[C@H]1C(=O)N[C@H]1CSSC[C@@H](C(=O)O)NC(=O)[C@H](CCCCN)NC(=O)[C@H](C)NC(=O)[C@H](CC(C)C)NC(=O)[C@H](Cc2cnc[nH]2)NC(=O)[C@H](Cc2ccc(O)cc2)NC(=O)[C@H](CCC(=O)O)NC(=O)[C@H](C(C)C)NC(=O)[C@H](CC(=O)O)NC(=O)[C@H](CO)NC(=O)[C@H](CO)NC(=O)[C@H](CCCCN)NC(=O)[C@H](CCCN=C(N)N)NC(=O)[C@H](CC(N)=O)NC(=O)[C@H](CC(C)C)NC(=O)[C@H](CO)NC(=O)[C@H](CCC(N)=O)NC1=O)C(C)C)[C@@H](C)CC` [GLLSGILGAGKHIVCGLSGPCQSLNRKSSDVEYHLAKC], the MIC in test [1] came to 0.797 µM (≈ 3.12 µg/mL); in test [2], 0.797 µM (≈ 3.12 µg/mL); in test [3], 3.19 µM (≈ 12.5 µg/mL); in test [4], 1.6 µM (≈ 6.25 µg/mL).

As to `CC(C)[C@H](NC(=O)[C@H](CCCCN)NC(=O)[C@@H](NC(=O)[C@H](CCC(N)=O)NC(=O)[C@H](CCCCN)NC(=O)[C@H](Cc1c[nH]c2ccccc12)NC(=O)[C@@H](N)CCCN=C(N)N)C(C)C)C(=O)N[C@@H](CCCCN)C(=O)N[C@@H](CCCN=C(N)N)C(=O)O` [RWKQVKVKR], the MIC in test [5] is 61.1 µM (≈ 75 µg/mL); in test [6], not below 61.1 µM; in test [7], more than 81.5 µM; in test [8], 30.5 µM (≈ 37.5 µg/mL).

For `CC[C@H](C)[C@H](NC(=O)[C@H](CO)NC(=O)[C@H](C)NC(=O)[C@@H](NC(=O)[C@H](CCCCN)NC(=O)[C@H](CCCCN)NC(=O)[C@H](Cc1c[nH]c2ccccc12)NC(=O)[C@@H](NC(=O)[C@@H](N)CC(N)=O)[C@@H](C)CC)[C@@H](C)CC)C(=O)N[C@@H](C)C(=O)N[C@@H](CCCCN)C(=O)N[C@@H](CCC(=O)O)C(=O)N[C@H](C(=O)N[C@@H](CC(C)C)C(=O)N[C@@H](CCCCN)C(=O)N[C@@H](C)C(=O)N[C@@H](CC(C)C)C(N)=O)C(C)C` [NIWKKIASIAKEVLKAL], the values for the MIC in test [3] and in test [4] were 10 µM (≈ 19.2 µg/mL) and 6.25 µM (≈ 12 µg/mL), respectively.

Turning to `CC(C)C[C@H](NC(=O)[C@@H]1CCCN1C(=O)[C@H](CCCCN)NC(=O)[C@@H]1CCCN1C(=O)[C@H](Cc1ccc(O)cc1)NC(=O)[C@H](CCCCN)NC(=O)[C@H](Cc1c[nH]c2ccccc12)NC(=O)[C@H](CCCN=C(N)N)NC(=O)[C@@H](N)Cc1ccccc1)C(=O)N[C@@H](CCCCN)C(=O)N[C@@H](CCCN=C(N)N)C(=O)O` [FRWKYPKPLKR], the MIC in test [5] is more than 65.8 µM; in test [6], not below 65.8 µM; in test [7], more than 65.8 µM; in test [8], more than 65.8 µM.

In the case of `CC[C@H](C)[C@H](NC(=O)[C@H](CC(C)C)NC(=O)[C@H](C)NC(=O)[C@@H]1CCCN1C(=O)[C@H](CC(C)C)NC(=O)[C@@H](N)CC(C)C)C(=O)N[C@@H](CO)C(=O)N[C@@H](Cc1c[nH]c2ccccc12)C(=O)N[C@H](C(=O)N[C@@H](CCCCN)C(=O)N[C@@H](CCCN=C(N)N)C(=O)N[C@@H](CCCCN)C(=O)N[C@@H](CCCN=C(N)N)C(=O)N[C@@H](CCC(N)=O)C(=O)N[C@@H](CCC(N)=O)C(N)=O)[C@@H](C)CC` [LLPALISWIKRKRQQ], the figures for the MIC in test [2], in test [3] and in test [4] were 0.595 µM (≈ 1.1 µg/mL), 1.19 µM (≈ 2.2 µg/mL) and 38.3 µM (≈ 70.8 µg/mL), respectively.

`CC[C@H](C)[C@H](NC(=O)CNC(=O)[C@H](CO)NC(=O)[C@H](CC(C)C)NC(=O)[C@H](CC(C)C)NC(=O)CN)C(=O)N[C@@H](CC(C)C)C(=O)NCC(=O)N[C@@H](C)C(=O)NCC(=O)N[C@@H](CCCCN)C(=O)N[C@@H](Cc1cnc[nH]1)C(=O)N[C@H](C(=O)N[C@H](C(=O)N[C@H]1CSSC[C@@H](C(=O)O)NC(=O)[C@H](CC(C)C)NC(=O)CNC(=O)[C@H](CO)NC(=O)[C@H](CC(C)C)NC(=O)CNC1=O)[C@@H](C)CC)[C@@H](C)CC` [GLLSGILGAGKHIICGLSGLC]: the MIC was 0.555 µM (≈ 1.1 µg/mL) in test [1], more than 50.4 µM in test [2], not below 50.4 µM in test [3] and more than 50.4 µM in test [4].
